Common to all, as to type: cell-based
For assay [1], the system named is Karpas-299 (expressing NPM-ALK fusion gene). Put plainly: In vitro growth inhibition (GI50), Karpas-299. As to conditions: Homo sapiens; Karpas-299, NPM-ALK. From the text:
(§1) Tumor cell line is an effective cell model for studying the inhibition of tumor cell growth or proliferation in vitro. In the present invention, a representative tumor cell line was selected to determine the cell growth inhibition activity of the present compound. All cell lines used were from ATCC, DSMZ, and the Cell Bank of the Chinese Academy of Sciences. Cell culture conditions and methods were in accordance with the requirements of each cell line. Cells were subcultured in vitro for no more than 3 passages each time, and as required, single-clone purification and identification of cell lines could be carried out.
(§2) The cell culture media used were RPMI1640 (Gibco), MEM (Gibco), McCOY'S5A (Gibco), and IMDM (Gibco). The complete medium was prepared by supplement with 5˜20% fetal calf serum (Gibco), 1% double-antibiotics (10000 units/mL penicillin and 10000 units/mL), 2 mM glutamine or 1 mM sodium pyruvate, respectively.
Human non-small cell lung cancer cell line NCI-H2228 (expressing EML4-ALK fusion gene, ATCC) and human anaplastic large cell lymphoma cell line Karpas-299 (expressing NPM-ALK fusion gene, ATCC) were cultured in complete medium comprising 1×RPMI1640 (10% FBS), respectively. Neuroblastoma cell line SH-SY5Y (expressing ALK F1174L mutant protein, Shanghai Cell Bank, Chinese Academy of Sciences) was cultured in MEM complete medium (1×MEM, 10% FBS, 1% NEAA, 1 mM sodium pyruvate).
(§3) Adherent cells were digested with 0.25% pancreatin-EDTA (Gibco). The suspension cells were collected by centrifugation. The supernatant was discarded and the cell pellet was resuspended and counted. Different cell concentrations (5˜10×10^4 cells/mL) were prepared according to the growth cycle of each cell line and then seeded on a 96-well plate (Corning), 100 μL/well. The cells were incubated overnight at 37° C., 5% CO2. The compounds were added to the cells on the second day with 2 wells in parallel. The final concentration of organic solvent shall not exceed 1%. The cells were continually incubated for 3 to 5 days, and then subjected to MTT assay.
(§4) The compound of the present invention and the control compound were dissolved in DMSO (Sigma) respectively, with the purity of more than 98%. The compound was stored in a concentration of 10 mM at −20° C. and diluted to 2- or 10-fold series prior to use.
(§5) Dojindo CCK8 reagent kit was used as MTT assay. THERMO […] FC meter was used as microplate reader.
(§6) For adherent cells, culture medium was removed and immediately replaced with the fresh prepared medium which contains 10% CCK8 reagent (100 μL/well). For the suspension cells, CCK8 was directly added to 10% of the final concentration. The cells were continually incubated for 1˜4 h. When a dark yellow color could be observed in the solvent control wells, the absorbance value at OD450 nm was measured and the cell growth rate was calculated according to the following formula: Cell Growth Rate (%)=100*(T−T0)/(C−T0) T=optical density of drug treatment cell well—optical density of blank control well; T0=optical density of cell well before drug treatment—optical density of blank control well; C=optical density of cell well of solvent control group—optical density of blank control well. The concentration value of 50% inhibition of cell growth (GI50) was calculated according to the drug concentration and cell growth rate curve. The experiment was independently repeated 1˜3 times, and subject to biological statistical analysis. 4. Experimental Results
Tumor cell growth inhibition test was performed by selecting representative compounds (compounds 4, 11, 12, 16, 27, 68, 71, 77, 79, 89 and 116 of the present invention). The initial concentration of the compound was 5,000 nM, then it was serially diluted by 2-fold or 10-fold to 0.01 nM. The GI50 value of each test compound was calculated according to the GI50 assay and calculation method. The experiments were repeated 1 to 3 times, and data were subjected to biological statistical analysis.

The subject of assay [2] is Calu-3 (HER2/ErbB2 amp). Briefly: In vitro growth inhibition (GI50), Calu-3. As to conditions: Homo sapiens.
From the text: as §1, §2
Human gastric cancer cell line NCI-N87 (HER2/ErbB2 amp, ATCC), human breast cancer cell line HCC1954 (HER2/ErbB2 amp, ATCC) and ZR-75-30 (HER2/ErbB2 amp, ATCC), human adenocarcinoma cell line AU565 (HER2/ErbB2 amp, ATCC), human lung squamous cell carcinoma cell line NCI-H2170 (HER2/ErbB2 amp, ATCC), human bronchioalveolar adenocarcinoma cell line NCI-H1781 (HER2/ErbB2 Ins G776V,C mutant type, ATCC) were cultured with a 1×RPMI1640 complete medium (10% FBS), respectively. Human lung adenocarcinoma cell line Calu-3 (HER2/ErbB2 amp, ATCC) was cultured with 1×MEM, 10% FBS, 1% double antibody, 1% NEAA (Gibco), 2 mM glutamine and 1 mM sodium pyruvate. The human breast cancer cell line SK-BR-3 (HER2/ErbB2 amp, ATCC) was cultured with a McCOY'S5A complete medium (10% FBS).
as §3, §4, §5, §6
Tumor cell growth inhibition test was performed by selecting representative compounds (compounds 4, 11, 12, 16, 27, 68, 71, 77, 79, 89 and 116 of the present invention). […]

The test system of assay [3] is A431 (EGFR WT, amplification and high expression). Briefly: In vitro growth inhibition (GI50), A431. As to conditions: Homo sapiens, A-431.
From the text: as §1, §2
Human epidermal cancer cell line A431 (EGFR WT, amplification and high expression, from Shanghai Cell Bank of Chinese Academy of Sciences and ATCC), human lung cancer cell line NCI-H292 (EGFR WT, purchased from Shanghai Cell Bank of Chinese Academy of Sciences), NSCLC cell lines PC-9 and HCC827 (EGFR exon19 E746-A750 deletion, two cell lines are sensitive to the first-generation EGFR PTK inhibitor), NSCLC cell line NCI-H1975 (EGFR L858R/T790M and the first-generation EGFR inhibitor resistance, ATCC) were cultured with 1×RPMI1640 complete medium (supplement with 10% FBS), respectively.
as §3, §4, §5, §6
Tumor cell growth inhibition test was performed by selecting representative compounds (compounds 4, 11, 12, 16, 27, 68, 71, 77, 79, 89 and 116 of the present invention). The initial concentration of the compound was 5,000 nM, then it was serially diluted by 2-fold or 10-fold to 0.01 nM. The GI50 value of each test compound was calculated according to the GI50 assay and calculation method. […]

The structures appear in SMILES notation.

Experimental findings from US10647680B2, “Urea compound, preparation method therefor and medical use thereof” (Ancureall Pharmaceutical (Shanghai) Co., Ltd., priority 2016, dated 2020) are described below.

For the compound `CC(C)(C)c1cc(NC(=O)Nc2ccc(-n3cnc4cc(OCCN5CCOCC5)ccc43)cc2)[nH]n1` [Compound 89, 1-(5-tert-butyl-2H-pyrazol-3-yl)-3-{4-[5-(2-morpholin-4-yl-ethoxyl)-benzimidazol-1-yl]-phenyl}-urea], the concentration for 50% growth inhibition (GI50) in assay [1], in assay [2] and in assay [3] was above 2.5 µM in each case.
On to `CC(C)(C)c1cc(NC(=O)Nc2ccc(-n3cnc4cc(O)ccc43)cc2)no1` [Compound 4, 1-(5-tert-butyl-isoxazol-3-yl)-3-[4-(5-hydroxy-benzimidazol-1-yl)-phenyl]-urea], for which the values for the GI50 in assay [2] and in assay [3] were above 2.5 µM and 1.89 µM, respectively.
In the case of `CC(C)(C)c1cc(NC(=O)Nc2ccc(-n3cnc4cc(OCCO)ccc43)cc2)no1` [Compound 11, 1-(5-tert-butyl-isoxazol-3-yl)-3-{4-[5-(2-hydroxy-ethoxyl)-benzimidazol-1-yl]-phenyl]-urea], the concentration for 50% growth inhibition (GI50) in assay [2] was above 2.5 µM; in assay [3], 1.56 µM.
On to `COCCOc1ccc2c(c1)ncn2-c1ccc(NC(=O)Nc2cc(C(C)(C)C)n[nH]2)cc1` [Compound 77, 1-(5-tert-butyl-2H-pyrazol-3-yl)-3-{4-[5-(2-methoxyl-ethoxyl)-benzimidazol-1-yl]-phenyl}-urea], for which the GI50 in assay [1], in assay [2] and in assay [3] was above 2.5 µM in each case.
Turning to `CC(C)(C)c1cc(NC(=O)Nc2ccc(-n3cnc4ccccc43)cc2)[nH]n1` [Compound 68, 1-(4-benzimidazol-1-yl-phenyl)-3-(5-tert-butyl-2H-pyrazol-3-yl)-urea], the 50% growth inhibitory concentration (GI50) in assay [1] was 1.88 µM; in assay [2] it was above 2.5 µM; in assay [3], above 2.5 µM.
Take `CC(C)(C)c1cc(N)n(C(=O)Nc2ccc(-n3cnc4ccccc43)cc2)n1` [Compound 116, 5-amino-3-tert-butyl-pyrazol-1-carboxylic acid (4-benzimidazol-1-yl-phenyl)-amide]: the 50% growth inhibitory concentration (GI50) in assay [1], in assay [2] and in assay [3] was above 2.5 µM each time.
In the case of `CC(C)(C)c1cc(NC(=O)Nc2ccc(-n3cnc4cc(OCCN5CCOCC5)ccc43)cc2)no1` [Compound 16, 1-(5-tert-butyl-isoxazol-3-yl)-3-{4-[5-(2-morpholin-4-yl-ethoxyl)-benzimidazol-1-yl]-phenyl}-urea], the 50% growth inhibitory concentration (GI50) in assay [1], in assay [2] and in assay [3] was above 2.5 µM each time.
`COc1ccc2c(c1)ncn2-c1ccc(NC(=O)Nc2cc(C(C)(C)C)n[nH]2)cc1` [Compound 71, 1-(5-tert-butyl-2H-pyrazol-3-yl)-3-[4-(5-methoxyl-benzimidazol-1-yl)-phenyl]-urea]: the GI50 in assay [1], in assay [2] and in assay [3] was above 2.5 µM throughout.
Regarding `CC(C)(C)c1cc(NC(=O)Nc2ccc(-n3cnc4cc(OCCO)ccc43)cc2)[nH]n1` [Compound 79, 1-(5-tert-butyl-2H-pyrazol-3-yl)-3-{4-[5-(2-hydroxy-ethoxyl)-benzimidazol-1-yl]-phenyl]urea], the figures for the concentration for 50% growth inhibition (GI50) in assay [1], in assay [2] and in assay [3] were above 2.5 µM, above 2.5 µM and 2 µM, respectively.
For `CC(C)(C)c1cc(NC(=O)Nc2ccc(-n3cnc4ccc(OCCN5CCOCC5)cc43)cc2)no1` [Compound 27, 1-(5-tert-butyl-isoxazol-3-yl)-3-{4-[6-(2morpholin-4-yl-ethoxyl)-benzimidazol-1-yl]-phenyl}-urea], the GI50 in assay [2] and in assay [3] was above 2.5 µM in each case.
